Measurements from patent EP2197879B1, “C7-SUBSTITUTED CAMPTOTHECIN ANALOGS” (priority 2007, dated 2009).
Where two headings read alike, the source gives them in different places.

Assays:
[1] = test system: A2780/WT (wild-type) cells; test: Sulforhodamine B (SRB) cytotoxicity assay in A2780/WT cells; format: cell-based; details: Homo sapiens
Method: (§1) Each of the testing conditions used in this study in both A2780/WT (wild-type) and A2780/DX5 cells were repeated in five to fifteen experiments that were performed on separate days. Each experiment consisted of one microtiter plate with at least eight individual assays of a given drug treatment condition on the plate. The sulforhodamine B (SRB) assay was used to assess cytotoxicity and absorbance at 570 nm (A570) in order to calculate the percentage of cell control (or percent cell survival) for the various treatment conditions in the plate wells.
(§2) Roswell Park Memorial Institute (RPMI 1640) medium, fetal bovine serum (FBS), and L-glutamine were purchased from Gibco BRL. Drugs were dissolved in sterile dimethylsulfoxide (DMSO), from American Type Culture Collection (ATCC) for stock solutions (2.5 to 5.0 mM). Subsequent dilutions were made using cell culture medium (prior to adding the drug to cells). SRB was purchased from Sigma and dissolved in 1.0 percent acetic acid. Trichloroacetic acid was purchased from VWR International.
(§3) Cells were manipulated in a Class IIA/B3 Biological Safety Cabinet (Forma Scientific) and maintained at 37°C in a humidified atmosphere containing 5% CO2 in a water-jacketed cell culture incubator (Forma Scientific). Cells were counted using a Coulter-Z1 counter (Beckman-Coulter). Following drug treatment, plates were washed using a Biomek 2000 station (Beckman) and, following exposure to SRB dye, plates were washed using an automated plate washer (Model EL404, Bio-Tek Instruments). Percentage of control was correlated to A570 values and determined using a Model EL800 plate reader (Bio-Tek Instruments).
(§4) Population doubling times for the two cell lines used in this study encompassed a total of five cell doublings corresponding to approximately 5 days for A2780/WT and A2780/DX5 cells. A2780/WT and A2780/DX5 cells were cultured in RPMI 1640 medium supplemented with 10% fetal bovine serum and 1 mM of L-glutamine. Both cell lines were maintained as monolayered cultures in T-25 or T-75 flasks and then seeded to microtiter plate wells for experiments described herein. Prior to SRB assays, cell viability was monitored by evaluation of microtiter plate wells. Dead cells detach and float while living cells remain attached to the bottom of the cell well.
(§5) The sulforhodamine B (SRB) cytotoxicity assay (see, Skehan P, et al., New colorimetric cytotoxicity assay for anticancer-drug screening. J. Natl. Cancer Inst. 82:1107-1112 (1990)) was used to determine the cytotoxic effects of BNP1350, SN-38, topotecan, 9-NH2-CPT, and 9-NO2-CPT on cell growth in vitro. Briefly, after the medium was aspirated from individual plate wells, trichloroacetic acid (100 µL of 10.0% solution) was added to each well, and the plates were incubated at 4°C for at least 1 hour. The plates were washed five-times with water using an automated microplate washer (Model EL 404, Bio-Tek Instruments), SRB solution (100 µL of 0.4 grams SRB dissolved in 100 mL 1.0 percent acetic acid) was added, and plates remained at room temperature for 15 minutes. The plates were then washed five-times using acetic acid (1.0%), air dried, and bound dye was solubilized in Tris base (150 µL, 10 mM). Plates were agitated (gently) for 5 minutes and the absorbance values of the SRB dye-protein adduct at a 570 nm wavelength (A570) were determined using an automated microtiter plate reader equipped with an A570 filter (Model EL800, BioTek Instruments). Table VII. Summary of Cytotoxicity Experiments in A2780/WT and DX5 Cells

[2] = test system: A2780/DX5 cells; test: Sulforhodamine B (SRB) cytotoxicity assay in A2780/DX5 cells; format: cell-based; details: for IC50 Ratio: A2780/DX5 versus A2780/WT; for IC50: Homo sapiens
Method: as §1, §2, §3, §4, §5

[3] = A2780, read-out: A2780/ WT (IC50)
[4] = SRB assay, A2780/DX5 cells, read-out: A2780/ DX5 (IC50)
[5] = SRB assay, A2780/WT cells, read-out: A2780/ WT (IC50)
[6] = A2780, read-out: A2780/ DX5 (IC50)

Row | SMILES | IC50 [1, 3] | IC50 Ratio [2] | IC50 [2, 4] | IC50 [1, 5] | IC50 [2, 6]
1 | CC[C@@]1(O)C(=O)OCc2c1cc1n(c2=O)Cc2c-1nc1ccccc1c2CC[Si](C)(C)CSC1=NCCS1 [Compound 34, (4S)-11-{2-[(4,5-dihydro-thiazol-2-ylsulfanylmethyl)-dimethylsilanyl]-ethyl}-4-ethyl-4-hydroxy-1,12-dihydro-4H-2-oxa-6,12a-diaza-dibenzo[b,h]fluorene-3,13-dione] | 0.0203 µM | 2.7 | 0.0555 µM | – | –
2 | CC[C@@]1(O)C(=O)OCc2c1cc1n(c2=O)Cc2c-1nc1ccccc1c2CC[Si](C)(C)CSCCO [Compound 35, (4S)-4-ethyl-4-hydroxy-11-{2-[(2-hydroxy-ethylsulfanylmethyl)-dimethyl-silanyl]-ethyl}-1,12-dihydro-4H-2-oxa-6,12a-diaza-dibenzo[b,h]fluorene-3,13-dione] | – | 2.6 | 0.0216 µM | 0.0082 µM | –
3 | CC[C@@]1(O)C(=O)OCc2c1cc1n(c2=O)Cc2c-1nc1ccccc1c2CC[Si](C)(C)CNS(=O)(=O)c1ccc(Cl)cc1 [Compound 37, (4S)-4-chloro-N-({[2-(4-ethyl-4-hydroxy-3,13-dioxo-3,4,12,13-tetrahydro-1H-2-oxa-6,12a-diaza-dibenzo[b,h]fluoren-11-yl)-ethyl]-dimethylsilanyl} -methyl)-benzenesulfonamide] | 0.207 µM | 4.08 | – | – | 0.845 µM
4 | CC[C@@]1(O)C(=O)OCc2c1cc1n(c2=O)Cc2c-1nc1ccccc1c2CC[Si](C)(C)CNC(=O)Nc1ccccc1 [Compound 41, (4S)-1-({[2-(4-ethyl-4-hydroxy-3,13-dioxo-3,4,12,13-tetrahydro-1H-2-oxa-6,12a-diaza-dibenzo[b,h]fluoren-11-yl)-ethyl]-dimethylsilanyl}-methyl)-3-phenylurea] | 0.0232 µM | 11.2 | – | – | 0.259 µM
5 | CCN(CC)C(=O)NC[Si](C)(C)CCc1c2c(nc3ccccc13)-c1cc3c(c(=O)n1C2)COC(=O)[C@]3(O)CC [Compound 43, (4S)-1,1-diethyl-3-({[2-(4-ethyl-4-hydroxy-3,13-dioxo-3,4,12,13-tetrahydro-1H-2-oxa-6,12a-diaza-dibenzo[b,h]fluoren-11-yl)-ethyl]-dimethylsilanyl} -methyl)-urea] | 0.0689 µM | 4.28 | – | – | 0.295 µM
6 | CC[C@@]1(O)C(=O)OCc2c1cc1n(c2=O)Cc2c-1nc1ccccc1c2CC[Si](C)(C)CNC(=O)N(C)C [Compound 45, (4S)-3-({[2-(4-ethyl-4-hydroxy-3, 13-dioxo-3,4, 12, 13-tetrahydro-1H-2-oxa-6,12a-diaza-dibenzo[b,h]fluoren-11-yl)-ethyl]-dimethylsilanyl}-methyl)-1,1-dimethyl-urea] | – | 4.9 | 0.178 µM | 0.0361 µM | –
7 | CC[C@@]1(O)C(=O)OCc2c1cc1n(c2=O)Cc2c-1nc1ccccc1c2CC[Si](C)(C)O [Compound 46, (4S)-4-Ethyl-4-hydroxy-11-[2-(hydroxydimethylsilanyl)-ethyl]-1, 12-dihydro-4H-2-oxa-6,12a-diaza-dibenzo[b,h]fluorene-3,13-dione] | – | 5.0 | 0.05 µM | 0.01 µM | –
8 | CCC1(O)C(=O)OCc2c1cc1n(c2=O)Cc2c-1nc1ccccc1c2CC[Si](C)(C)CCC(=O)O (stereo not drawn) [Compound 47, 3-{[2-(4-Ethyl-4-hydroxy-3,13-dioxo-3 ,4, 12, 13-tetrahydro-1H-2-oxa-6, 12a-diaza-dibenzo[b,h]fluoren-11-yl)-ethyl]-dimethyl-silanyl}-propionic acid] | – | 3.1 | 0.629 µM | 0.2 µM | –
9 | CCC1(O)C(=O)OCc2c1cc1n(c2=O)Cc2c-1nc1ccccc1c2CC[Si](C)(C)CCC(=O)N(C)C (stereo not drawn) [Compound 48, 3-{[2-(4-Ethyl-4-hydroxy-3,13-dioxo-3,4,12,13-tetrahydro-1H-2-oxa-6,12a-diaza-dibenzo[b,h]fluoren-11-yl)-ethyl]-dimethyl-silanyl}-N,N-dimethyl-propionamide] | – | 3.9 | 0.164 µM | 0.0423 µM | –
